Assay results from US20240287079A1, “6-AMINOPYRAZOLOPYRIMIDINE COMPOUND AND PHARMACEUTICAL USE THEREOF” (Japan Tobacco Inc., priority 2021, published 2024).

What follows are molecules tested against NLRP3 inflammasome (Homo sapiens (Human), UniProt Q96P20) (assay: Evaluation of NLRP3 inflammasome inhibitory activity (inhibition of IL-1β production in LPS/Nigericin-stimulated THP1-Null cells)). Conditions: IL-1β production in THP1-Null cells, PMA, LPS 1 μg/mL, Nigericin 7.5 μmol/L, AlphaLISA.
Type: cell-based
Outline: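 THP1-Null cells primed with 1 μg/mL LPS, then treated with test compound; supernatant IL-1β quantified by AlphaLISA. Inhibition calculated with blank wells as 100% and control wells as 0%.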

Chain of NLRP3 inflammasome (Q96P20 whole entry): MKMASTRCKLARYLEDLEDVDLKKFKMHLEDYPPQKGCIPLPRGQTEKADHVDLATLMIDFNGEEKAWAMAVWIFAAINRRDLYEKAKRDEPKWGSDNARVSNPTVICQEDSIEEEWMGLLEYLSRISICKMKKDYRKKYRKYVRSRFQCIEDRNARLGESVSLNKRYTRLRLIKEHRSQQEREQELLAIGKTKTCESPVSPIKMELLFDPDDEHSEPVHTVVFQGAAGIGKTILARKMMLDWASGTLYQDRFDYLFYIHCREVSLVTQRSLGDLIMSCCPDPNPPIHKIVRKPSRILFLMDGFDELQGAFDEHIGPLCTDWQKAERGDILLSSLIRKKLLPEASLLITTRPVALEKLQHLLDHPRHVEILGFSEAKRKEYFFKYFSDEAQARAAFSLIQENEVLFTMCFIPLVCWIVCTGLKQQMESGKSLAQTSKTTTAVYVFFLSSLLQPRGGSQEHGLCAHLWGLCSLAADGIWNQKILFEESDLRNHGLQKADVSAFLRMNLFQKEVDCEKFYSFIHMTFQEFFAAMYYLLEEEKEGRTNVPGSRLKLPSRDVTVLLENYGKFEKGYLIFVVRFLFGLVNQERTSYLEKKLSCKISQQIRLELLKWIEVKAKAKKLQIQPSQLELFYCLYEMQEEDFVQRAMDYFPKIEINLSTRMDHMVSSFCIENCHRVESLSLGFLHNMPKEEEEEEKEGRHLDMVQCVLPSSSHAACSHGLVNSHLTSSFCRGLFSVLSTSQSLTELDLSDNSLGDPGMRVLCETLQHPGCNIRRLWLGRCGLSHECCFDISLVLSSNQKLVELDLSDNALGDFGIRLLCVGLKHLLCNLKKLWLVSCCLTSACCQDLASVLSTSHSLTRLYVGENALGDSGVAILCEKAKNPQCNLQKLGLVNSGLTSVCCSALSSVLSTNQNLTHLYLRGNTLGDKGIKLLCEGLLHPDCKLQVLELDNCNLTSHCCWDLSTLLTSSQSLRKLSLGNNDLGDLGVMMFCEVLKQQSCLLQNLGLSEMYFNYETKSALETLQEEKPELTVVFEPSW

Point of comparison: CC(=O)N1CCCN(c2nc3nn(-c4ccc(C(F)(F)F)cc4Cl)cc3c(=O)[nH]2)CC1 [Example 134], IC50 91 nM. Against it:
- COC1CCN(c2nc3nn(-c4ccc(Br)cc4C)cc3c(=O)[nH]2)C1 (racemic) [Example 70] — 2.3-fold lower, 39 nM
- Cc1cc(C2CC2)cc(C)c1-n1cc2c(=O)[nH]c(N3CCCCO3)nc2n1 [Example 333] — 1.9-fold lower, 49 nM
- CC(=O)N1CC2CN(c3nc4nn(-c5ccc(C(F)(F)F)cc5Cl)cc4c(=O)[nH]3)CC2C1 (stereo not drawn) [Example 187] — 2.4-fold lower, 38 nM
- Cc1cc(Br)ccc1-n1cc2c(=O)[nH]c(N3CCCOCC3)nc2n1 [Example 142] — 4.1-fold lower, 22 nM
- Cc1cc(Br)cc(C(F)(F)F)c1-n1cc2c(=O)[nH]c(N3CCOCC3)nc2n1 [Example 174] — 7.6-fold lower, 12 nM
- Cc1cc(C2CC2)cc(C)c1-n1cc2c(=O)[nH]c(N3CCCOCC3)nc2n1 [Example 326] — 12-fold lower, 7.5 nM
- Cc1cc(C(F)(F)F)ncc1-n1cc2c(=O)[nH]c(N3CC(F)(F)C3)nc2n1 [Example 99] — within 1.5-fold, 82 nM
- Cc1ccccc1-n1cc2c(=O)n(C)c(N3CCCC3)nc2n1 [Example 14] — 79-fold higher, 7200 nM
- Cc1cc(C)c(-n2cc3c(=O)[nH]c(N4CCOCC4)nc3n2)c(Cl)c1 [Example 148] — 4.8-fold lower, 19 nM
- Cc1cc(C(F)(F)F)cnc1-n1cc2c(=O)[nH]c(N3CC(F)(F)C3)nc2n1 [Example 123] — 1.5-fold higher, 140 nM
- Cc1cc(Br)cc(C)c1-n1cc2c(=O)[nH]c(N3CC(F)C3)nc2n1 [Example 198] — 11-fold lower, 8 nM
- O=c1[nH]c(N2CCCC2)nc2nn(-c3ccc(F)cc3Cl)cc12 [Example 32] — 2.6-fold higher, 240 nM
- Cc1cc(Br)ccc1-n1cc2c(OCC#N)nc(N3CCOCC3)nc2n1 [Example 156] — 3.2-fold higher, 290 nM
- Cc1cc(Br)cc(C)c1-n1cc2c(=O)[nH]c(N3CCC[C@@H]3C)nc2n1 [Example 285] — 3.4-fold lower, 27 nM
- Cc1cc(C)cc(-n2cc3c(=O)[nH]c(N4CCCC4)nc3n2)c1 [Example 64] — 3.2-fold higher, 290 nM
- CNc1nc2nn(-c3ccc(C)cc3C)cc2c(=O)[nH]1 [Example 65] — within 1.5-fold, 80 nM
- Cc1cc(Br)ccc1-n1cc2c(=O)[nH]c(NCc3ccccc3)nc2n1 [Example 74] — 3.6-fold lower, 25 nM
- Cc1cc(C2=CCCCC2)ccc1-n1cc2c(=O)[nH]c(N3CCCC3)nc2n1 [Example 67] — 25-fold higher, 2300 nM
- Cc1cc(Br)ccc1-n1cc2c(=O)[nH]c(N3CCN(C(=O)C4CC4)CC3)nc2n1 [Example 140] — 16-fold lower, 5.8 nM
- COCC1CN(c2nc3nn(-c4ccc(Br)cc4C)cc3c(=O)[nH]2)CCO1 (racemic) [Example 72] — 1.8-fold lower, 52 nM
- Cc1cc(C(F)(F)F)cc(C)c1-n1cc2c(=O)[nH]c(N3CC4CCC(C3)O4)nc2n1 [Example 295] — 4.5-fold lower, 20 nM
- COC1CN(c2nc3nn(-c4ccc(C)cc4C)cc3c(=O)[nH]2)C1 [Example 59] — 4.1-fold higher, 370 nM
- Cc1c(Cl)ccc(-n2cc3c(=O)[nH]c(N4CCOCC4)nc3n2)c1C [Example 282] — 2-fold higher, 180 nM
- CS(=O)(=O)N1CCCN(c2nc3nn(-c4ccc(C(F)(F)F)cc4Cl)cc3c(=O)[nH]2)CC1 [Example 135] — 2.1-fold lower, 43 nM
- C=C(C)c1ccc(-n2cc3c(=O)[nH]c(N4CCCC4)nc3n2)c(C)c1 [Example 81] — 8.3-fold lower, 11 nM
- Cc1cc(Br)ccc1-n1cc2c(=O)[nH]c(N3CC4CC3CO4)nc2n1 (racemic) [Example 159] — 8.3-fold lower, 11 nM
- Cc1cccc(-n2cc3c(=O)[nH]c(N4CCCC4)nc3n2)c1C [Example 47] — 2.5-fold higher, 230 nM
- Cc1cc(Br)cc(C)c1-n1cc2c(=O)[nH]c(NCCOCCO)nc2n1 [Example 360] — 15-fold lower, 6.1 nM
- Cc1cc(Br)cc(C)c1-n1cc2c(=O)[nH]c(N3CC4(CC(O)C4)C3)nc2n1 [Example 199] — 13-fold lower, 6.8 nM
- Cc1cc(C(F)(F)F)cnc1-n1cc2c(=O)[nH]c(N3CCOCC3)nc2n1 [Example 122] — 2-fold higher, 180 nM
- Cc1cc(Br)cc(C)c1-n1cc2c(=O)[nH]c(NCCF)nc2n1 [Example 267] — 14-fold lower, 6.5 nM
- Cc1cc(C2CC2)cc(C)c1-n1cc2c(=O)[nH]c(N3CC4CC(C3)O4)nc2n1 [Example 232] — 15-fold lower, 6 nM
- CC(C)(C)OC(=O)N1CCCN(c2nc3nn(-c4ccc(C(F)(F)F)cc4Cl)cc3c(=O)[nH]2)CC1 [Example 132] — within 1.5-fold, 74 nM
- COC[C@H]1CCCN1c1nc2nn(-c3ccccc3C)cc2c(=O)[nH]1 [Example 41] — 45-fold higher, 4100 nM
- Cc1cc(Br)cc(C)c1-n1cc2c(=O)[nH]c(N3CCC[C@H]3C)nc2n1 [Example 284] — 7.6-fold lower, 12 nM
- O=c1[nH]c(N2CCOCC2)nc2nn(-c3ccc(Cl)cc3CC3CC3)cc12 [Example 320] — 2-fold lower, 45 nM
- CNC(=O)C1CCN(c2nc3nn(-c4c(C)cc(C)cc4C)cc3c(=O)[nH]2)C1 (racemic) [Example 110] — within 1.5-fold, 80 nM
- Cc1ccccc1-n1cc2c(=O)[nH]c(N3CCC(C#N)C3)nc2n1 (racemic) [Example 26] — 14-fold higher, 1300 nM
- Cc1cc(Cl)ccc1-n1cc2c(=O)[nH]c(N3CCOCC3)nc2n1 [Example 164] — 3.1-fold lower, 29 nM
- C=C(c1cc(C)c(-n2cc3c(=O)[nH]c(N4CCOCC4)nc3n2)c(C)c1)C(F)(F)F [Example 293] — 3.2-fold higher, 290 nM
- Cc1ccc(-n2cc3c(=O)[nH]c(N4CCOCC4)nc3n2)c(C)c1 [Example 58] — within 1.5-fold, 120 nM
- Cc1cc(Br)ccc1-n1cc2c(=O)[nH]c(N3CCN(S(=O)(=O)C4CC4)CC3)nc2n1 [Example 139] — 17-fold lower, 5.3 nM
- Cc1c2c(=O)[nH]c(N3CCCC3)nc2nn1-c1ccc(C(F)(F)F)cc1Cl [Example 170] — within 1.5-fold, 88 nM
- Cc1cc(Br)cc(C)c1-n1cc2c(=O)[nH]c(N3CCC(F)(F)C3)nc2n1 [Example 283] — 13-fold lower, 7.1 nM
- O=c1[nH]c(N2C[C@@H]3C[C@H]2CO3)nc2nn(-c3ccc(Br)cc3C(F)(F)F)cc12 [Example 260] — 5.4-fold lower, 17 nM
- Cc1cc(Br)cc(C)c1-n1cc2c(=O)[nH]c(N3CCCCCO3)nc2n1 [Example 338] — 3.6-fold lower, 25 nM
- Cc1ccccc1-n1cc2c(=O)[nH]c(N3CCC(C)(O)C3)nc2n1 (racemic) [Example 37] — 35-fold higher, 3200 nM
- [2H]C([2H])([2H])Nc1nc2nn(-c3c(C)cc(C4CC4)cc3C)cc2c(=O)[nH]1 [Example 231] — 12-fold lower, 7.7 nM
- Cc1ccc(-n2cc3c(=O)[nH]c(N4CCN(C)CC4)nc3n2)c(C)c1 [Example 84] — within 1.5-fold, 95 nM
- CC(C)c1ccccc1-n1cc2c(=O)[nH]c(N3CCCC3)nc2n1 [Example 31] — 5.9-fold higher, 540 nM
- COC1CCN(c2nc3nn(-c4ccc(C)cc4C)cc3c(=O)[nH]2)C1 (racemic) [Example 56] — 2.1-fold higher, 190 nM
- Cc1cc(Cl)cc(C(O)C2CC2)c1-n1cc2c(=O)[nH]c(N3CCOCC3)nc2n1 (racemic) [Example 162] — 1.6-fold higher, 150 nM
- O=c1[nH]c(N2C[C@H]3C[C@@H]2CO3)nc2nn(-c3ccc(C4CC4)cc3C(F)(F)F)cc12 [Example 262] — 9.3-fold lower, 9.8 nM
- CCOC1CCN(c2nc3nn(-c4c(C)cccc4C)cc3c(=O)[nH]2)C1 (racemic) [Example 48] — 9-fold higher, 820 nM
- CC(C)Oc1cc(Br)ccc1-n1cc2c(=O)[nH]c(N3CCOCC3)nc2n1 [Example 303] — within 1.5-fold, 88 nM
- O=c1[nH]c(N2CCCC2CO)nc2nn(-c3ccc(C(F)(F)F)cc3Cl)cc12 (racemic) [Example 178] — 2.8-fold lower, 33 nM
- O=c1[nH]c(N2CC(O)C2)nc2nn(-c3ccc(C(F)(F)F)cc3Cl)cc12 [Example 182] — within 1.5-fold, 79 nM
- C[C@@H]1COCCN1c1nc2nn(-c3ccc(C4CC4)cc3C(F)(F)F)cc2c(=O)[nH]1 [Example 261] — 17-fold lower, 5.5 nM
- Cc1ccc(-n2cc3c(=O)[nH]c(N4CCCC4)nc3n2)c(Cl)c1 [Example 87] — 18-fold lower, 5.1 nM
- Cc1cc(C(F)(F)F)cc(C)c1-n1cc2c(=O)[nH]c(N3C[C@H]4C[C@@H]3CO4)nc2n1 [Example 249] — 28-fold lower, 3.3 nM
- CCCN(C)c1nc2nn(-c3ccccc3C)cc2c(=O)[nH]1 [Example 18] — 130-fold higher, 12000 nM
- O=c1[nH]c(N2CCOCC2)nc2nn(-c3ccc(Br)cc3C3CC3)cc12 [Example 196] — 8.3-fold lower, 11 nM
- Cc1cc(Br)ccc1-n1cc2c(=O)[nH]c(N3CCOCC3)nc2n1 [Example 69] — 3.8-fold lower, 24 nM
- Cc1cc(C(C)(F)F)cc(C)c1-n1cc2c(=O)[nH]c(N3CCOCCO3)nc2n1 [Example 351] — within 1.5-fold, 74 nM
- CCOC1CCN(c2nc3nn(-c4ccccc4C)cc3c(=O)[nH]2)C1 (racemic) [Example 28] — 10-fold higher, 950 nM
- Cc1cc(Br)cc(C)c1-n1cc2c(=O)[nH]c(N3CC4CCC(C3)O4)nc2n1 [Example 278] — 12-fold lower, 7.9 nM
- Cc1cc(C2CC2)ccc1-n1cc2c(=O)[nH]c(N3CCCC3)nc2n1 [Example 82] — 22-fold lower, 4.1 nM
- Cc1cc(Br)cc(C)c1-n1cc2c(=O)[nH]c(N3C=COCC3)nc2n1 [Example 362] — 35-fold lower, 2.6 nM
- O=c1[nH]c(N2C[C@H]3C[C@@H]2CO3)nc2nn(-c3ccc(Br)cc3C(O)C3CC3)cc12 (stereo partly drawn) [Example 309] — within 1.5-fold, 110 nM
- Cc1cc(Br)ccc1-n1cc2c(=O)[nH]c(N3CCC(C#N)C3)nc2n1 (racemic) [Example 90] — 19-fold lower, 4.9 nM
- Cc1cc(Br)ccc1-n1cc2c(=O)[nH]c(N3CCS(=O)(=O)CC3)nc2n1 [Example 79] — 15-fold lower, 5.9 nM
- O=c1[nH]c(N2CCOCC2)nc2nn(-c3c(F)cc(C(F)(F)F)cc3Cl)cc12 [Example 189] — 4.5-fold lower, 20 nM
- Cc1ccc(-n2cc3c(=O)[nH]c(N4CCCC4)nc3n2)cc1C [Example 52] — 23-fold higher, 2100 nM
- CO[C@H]1CCN(c2nc3nn(-c4c(C)cc(Br)cc4C)cc3c(=O)[nH]2)C1 [Example 318] — 2.8-fold lower, 32 nM
- CC(=O)N(C)c1nc2nn(-c3ccc(C)cc3C)cc2c(=O)[nH]1 [Example 66] — 47-fold higher, 4300 nM
- Cc1cc(Br)ccc1-n1cc2c(=O)[nH]c(N3CC4(COC4)C3)nc2n1 [Example 191] — 2.6-fold lower, 35 nM
- COCc1cc(Cl)ccc1-n1cc2c(=O)[nH]c(N3CCCC3)nc2n1 [Example 144] — 3.8-fold lower, 24 nM

Same assay, conditions: IL-1β production in THP1-Null cells; test compound 0.0024 μM

Point of comparison: Cc1cc(Br)cc(C)c1-n1cc2c(=O)[nH]c(NC3CC3)nc2n1 [Example 230], inhibition at 0.0024 µM 60%. Against it:
- Cc1cc(C2CC2)cc(Cl)c1-n1cc2c(=O)[nH]c(N3CCOCC3)nc2n1 [Example 147] — lower, 54%
- Cc1cc(C2CC2)cc(C)c1-n1cc2c(=O)[nH]c(N3CCN(S(C)(=O)=O)CC3)nc2n1 [Example 125] — lower, 52%
